The test concerns Clostridium perfringens ATCC 13124. In kind it is cell-based. Particulars: 37° C., culture broth.

Read-outs that look alike come from different tables or passages of the source.

As for `CC(=O)O[C@]1(C)CC[C@@]23C[C@@H]1C(C)(C)[C@@H]2CC[C@H]3C` [cedryl acetate], the “growth of Clostridium perfringens” value is, setting by setting: (2 ppm sesquiterpene) “−”; (10 ppm sesquiterpene) “−”.
For cedrene-9-ol, the “growth of Clostridium perfringens” value runs as follows: (2 ppm sesquiterpene) “+”; (10 ppm sesquiterpene) “+”.
On to `C[C@@H]1CC[C@@H]2[C@H](C3=C1CC[C@H]3C)C2(C)C` [(−) iso-ledene], for which the “growth of Clostridium perfringens” value is on record as “+” (0.5 ppm sesquiterpene) and “−” (100 ppm sesquiterpene).
For the compound `C=C1CC/C=C(\C)CC[C@@H]2[C@@H]1CC2(C)C` [β-caryophyllene], the “growth of Clostridium perfringens” value is given as “+” (0.2 ppm sesquiterpene), “−” (1 ppm sesquiterpene), “−” (2 ppm sesquiterpene) and “−” (100 ppm sesquiterpene).
In the case of `C=C1[C@H]2CC[C@@H]3[C@H]2C(C)(C)CCC[C@]13C` [Longifolene], the “growth of Clostridium perfringens” value is, setting by setting: (0.3 ppm sesquiterpene) “+”; (1.2 ppm sesquiterpene) “−”; (2 ppm sesquiterpene) “−”; (10 ppm sesquiterpene) “−”.
Take `C[C@@H]1CC[C@@H]2[C@@H]1[C@H]1[C@@H](CC[C@]2(C)O)C1(C)C` [(−) epiglobulol]: the “growth of Clostridium perfringens” value is listed as “+” (0.5 ppm sesquiterpene), “+” (2 ppm sesquiterpene), “−” (10 ppm sesquiterpene) and “−” (100 ppm sesquiterpene).
`CC(=O)CCC=C(C)CCC=C(C)CCC=C(C)C` [farnesyl acetone]: the “growth of Clostridium perfringens” value runs as follows: (2 ppm sesquiterpene) “−”; (10 ppm sesquiterpene) “−”.
Regarding `CC(C)=C1C/C=C(\C)CC/C=C(\C)CC1=O` [Germacrone], the “growth of Clostridium perfringens” value reads like this: (0.5 ppm sesquiterpene) “+”; (6 ppm sesquiterpene) “+”; (30 ppm sesquiterpene) “−”; (100 ppm sesquiterpene) “−”.
Take α-bisabolol: the “growth of Clostridium perfringens” value (2 ppm sesquiterpene) was “+”.
On to `CC1=CC[C@@]23[C@@H]([C@@H]12)[C@H](C(C)C)CC[C@H]3C` [α-cubebene], for which the “growth of Clostridium perfringens” value (1.2 ppm sesquiterpene) is reported as “−” and the “growth of Clostridium perfringens” value (100 ppm sesquiterpene) is given as “−”.
Consider (−) globulol, for which the “growth of Clostridium perfringens” value was “+” (0.5 ppm sesquiterpene), “+” (2 ppm sesquiterpene), “−” (10 ppm sesquiterpene) and “−” (100 ppm sesquiterpene).
`C=C1CC[C@@]23C[C@@H]1C(C)(C)[C@@H]2CC[C@H]3C` [β-cedrene]: the “growth of Clostridium perfringens” value reads like this: (1.2 ppm sesquiterpene) “−”; (2 ppm sesquiterpene) “−”; (10 ppm sesquiterpene) “−”.
As to `CC(C)=CCCC(C)=CCCC(C)=CC=O` [Farnesal], the “growth of Clostridium perfringens” value (2 ppm sesquiterpene) is reported as “+”.
For the compound `CC(=O)OCC=C(C)CCC=C(C)CCC=C(C)C` [farnesyl acetate], the “growth of Clostridium perfringens” value runs as follows: (2 ppm sesquiterpene) “−”; (10 ppm sesquiterpene) “−”.
Turning to `C=CC(C)(O)CCC=C(C)CCC=C(C)C` (centres unmarked) [Nerolidol], the “growth of Clostridium perfringens” value runs as follows: (2 ppm sesquiterpene) “+”; (10 ppm sesquiterpene) “−”.
`CC1=CC[C@@]23C[C@@H]1C(C)(C)[C@@H]2CC[C@H]3C` [α-cedrene]: the “growth of Clostridium perfringens” value is “−” (1.2 ppm sesquiterpene), “−” (2 ppm sesquiterpene) and “−” (10 ppm sesquiterpene).
In the case of `C=C1CC[C@@H]2[C@H]([C@@H]3[C@H](C)CC[C@@H]13)C2(C)C` [Aromadendrene], the “growth of Clostridium perfringens” value by setting is: (0.5 ppm sesquiterpene) “+”; (100 ppm sesquiterpene) “−”.
Turning to `C/C1=C\CC/C(C)=C/CC(C)(C)/C=C/C1` [α-humulene (α-caryophyllene)], the “growth of Clostridium perfringens” value (0.3 ppm sesquiterpene) is on record as “+”; the “growth of Clostridium perfringens” value (0.4 ppm sesquiterpene) is reported as “+”; the “growth of Clostridium perfringens” value (1.2 ppm sesquiterpene) is “−”; the “growth of Clostridium perfringens” value (2 ppm sesquiterpene) is given as “−”; the “growth of Clostridium perfringens” value (10 ppm sesquiterpene) is recorded as “−”.
On to `C=C1C=CC(C)(C)CCCC(C)=CCC1` [γ-humulene], for which the “growth of Clostridium perfringens” value (0.4 ppm sesquiterpene) is given as “+”.
Regarding `C=C1CC[C@@H]2[C@H]([C@@H]3[C@H](C)CC[C@H]13)C2(C)C` [allo-aromadendrene], the “growth of Clostridium perfringens” value by setting is: (2 ppm sesquiterpene) “−”; (100 ppm sesquiterpene) “−”.
Regarding `C[C@@H]1CC[C@H]2C(C)(C)[C@H]3C[C@@]12CC[C@@]3(C)O` [Cedrol], the “growth of Clostridium perfringens” value (2 ppm sesquiterpene) was “+” and the “growth of Clostridium perfringens” value (10 ppm sesquiterpene) is on record as “−”.
Regarding `CC(C)=CCC/C(C)=C/CC/C(C)=C/CO` [trans-trans farnesol], the “growth of Clostridium perfringens” value reads like this: (2 ppm sesquiterpene) “+”; (10 ppm sesquiterpene) “−”.
Regarding `CC1=CC[C@H]2[C@H]3[C@@H]1[C@]2(C)CC[C@H]3C(C)C` [α-copaene], the “growth of Clostridium perfringens” value was “+” (0.5 ppm sesquiterpene), “−” (1.2 ppm sesquiterpene) and “−” (100 ppm sesquiterpene).
Take `C=C1C/C=C/C(C)(C)C/C=C(\C)CCC1` [β-humulene]: the “growth of Clostridium perfringens” value runs as follows: (0.4 ppm sesquiterpene) “+”; (1.2 ppm sesquiterpene) “−”.
Take `CC1=C2CC[C@@H](C)[C@H]2[C@H]2[C@@H](CC1)C2(C)C` [(+) ledene]: the “growth of Clostridium perfringens” value (1.2 ppm sesquiterpene) was “−”, the “growth of Clostridium perfringens” value (2 ppm sesquiterpene) was “−” and the “growth of Clostridium perfringens” value (100 ppm sesquiterpene) is reported as “−”.
Turning to bisabolene/farnesene, the “growth of Clostridium perfringens” value is recorded as “+” (0.3 ppm sesquiterpene), “−” (1.2 ppm sesquiterpene), “−” (2 ppm sesquiterpene) and “−” (10 ppm sesquiterpene).

Source of the values: US8906967B2 (priority 2007, dated 2014).
